Patent US8198285B2, “Pyrazine derivatives” (Astrazeneca AB, priority 2010, dated 2012)
Where a name gives a salt, the structure may show the parent alone.

Legend:
[1] = test system: human adipose-derived stem cells (hADSC); assay: Osteogenic differentiation and assessment of mineralisation in vitro (Alizarin Red S); assay type: cell-based; settings: 300 nM; 24 days of cell culture; relative to vehicle control (0.2% DMSO)
Protocol: (§1) For in vitro osteogenesis, human adipose-derived stem cells (hADSC) (Invitrogen, UK; catalogue number R7788-115) were seeded into 12-well plates at a density of 5000 cells/cm^2 and were cultured in a basal media of phenol red-free Dulbecco's Modified Eagles Medium (DMEM; Sigma-Aldrich, UK; catalogue number D1145) supplemented with 5% fetal bovine serum (FBS, Gibco, UK; catalogue number 10270) and 2 mM GlutaMax® (Gibco; catalogue number 35050). […] The formation of mineralized bone nodules was assessed during the time-course using Alizarin Red S staining. […] The amount of mineralisation was quantified through the extraction of the Alizarin Red S stain from bone nodules using a cetylpyridinium chloride extraction method, previously described (Gregory et al., Analytical Biochemistry, 2004, 329: 77-84; Hwang et al., Stem Cells and Development 17: 963-970, 2008). […] Following incubation, 200 μl aliquots were transferred to 96-well format and the absorbance at 550 nm was determined using a microplate spectrophotometer (SpectraMax Plus, Molecular Devices, USA). Data were expressed as mean absorbance at 550 nm±Standard error of mean (SEM). […] Data are shown as mean absorbance at 550 nm and analysed using one-way ANOVA followed by Tukey's multiple comparison post hoc test: n=9; ***, P<0.001. […]

[2] = test system: osteoclast-derived tartrate-resistant acid phosphatase form 5b (TRAcP-5b); assay: Bone biomarker evaluation: serum TRAcP-5b assay; assay type: in vivo, rat; settings: oral once a day, 7 consecutive days, female CRL:CD rats
Protocol: as §1

[3] = biological target: CHK2 (checkpoint kinase 2) (Homo sapiens, UniProt O96017); assay: Inhibitory activity against CHK2; assay type: biochemical
Sequence of CHK2 (checkpoint kinase 2) (O96017 whole entry, species assumed): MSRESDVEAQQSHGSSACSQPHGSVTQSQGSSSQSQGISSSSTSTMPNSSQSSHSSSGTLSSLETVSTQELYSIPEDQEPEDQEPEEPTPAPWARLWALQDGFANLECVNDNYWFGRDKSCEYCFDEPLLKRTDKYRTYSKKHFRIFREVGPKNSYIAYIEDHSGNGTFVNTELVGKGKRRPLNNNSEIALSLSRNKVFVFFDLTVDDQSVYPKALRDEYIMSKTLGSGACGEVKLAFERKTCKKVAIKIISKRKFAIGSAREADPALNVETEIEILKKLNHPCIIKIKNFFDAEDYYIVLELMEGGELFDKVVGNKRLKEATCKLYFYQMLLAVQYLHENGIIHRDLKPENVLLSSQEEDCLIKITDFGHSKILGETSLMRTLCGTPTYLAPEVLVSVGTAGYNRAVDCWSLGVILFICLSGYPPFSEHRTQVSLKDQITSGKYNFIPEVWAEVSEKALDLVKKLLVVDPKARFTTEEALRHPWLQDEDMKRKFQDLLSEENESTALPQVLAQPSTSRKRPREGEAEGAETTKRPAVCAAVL

SMILES: COCCCNCCCc1ccc(-c2cnc(N)c(C(=O)Nc3cccnc3)n2)cc1 [Example 1, 3-Amino-6-(4-{3-[(3-methoxypropyl)amino]propyl}phenyl)-N-pyridin-3-ylpyrazine-2-carboxamide tri-hydrochloride]
- Alizarin red S staining of mineralised bone nodules [1]: significantly induced progenitor cell commitment and osteoblast differentiation
- Serum TRAcP-5b levels (marker of bone resorption) [2]: reduction in serum TRAcP-5b levels
- Inhibitory activity against CHK2 [3]: inhibitory activity
